Measurements: US20230107642A1 (Erasca, Inc., priority 2020, published 2023)

Experiment: Determination of total drug concentration in rat brain (BBB penetration)
Format: in vivo
Conditions: male SD rat, 2 mg/kg IV infusion for 4 hours, brain collected at end of 4 hours
Method: BB. Example 9: Determination of Total Drug Concentration in Rat Brain
In Vivo Experimental Procedures
Infuse male SD rat at 2 mg/kg dose for 4 hours through IV administration route. Collect brain tissues at the end of 4 hours.
Sample Preparation Procedures
Dilute brain tissue by adding homogenization solvent (1:4, w/v). Homogenize diluted brain tissue samples. Extract analyte by adding organic solvent (1:4, v/v) with spiked internal standard. Vortex and centrifuge the samples. Remove supernatant and dilute with HPLC compatible solvent (1:3, v/v).
Inject diluted extract into LC-MS/MS system using reversed phase high performance liquid chromatography coupled with electrospray ionization and selected reaction monitoring. Determine the total drug concentration in brain samples by quantitating against the standard curve prepared using the same matrix.
The following data provides blood brain barrier (BBB) penetration activity for a selection of inventive compounds where were directly compared to sotorasib and adagrasib (concentration in brain measured in ng/g).
Compounds that were measured as having a total concentration in the brain of at least 60 ng/g are indicated as “+”.
In the case of `C=CC(=O)N1[C@H](C)CN(c2nc(=O)n3c4c(c(-c5cc(Cl)c(F)cc5F)c(C(F)(F)F)cc24)SC[C@@H]3CC)C[C@@H]1C` (atropisomer, axis not shown) [Example 13-8], the BBB activity is reported as “+ (Compounds that were measured as having a total concentration in the brain of at least 60 ng/g are indicated as “+”)”.
For `C=CC(=O)N1[C@H](C)CN(c2nc(=O)n3c4c(c(-c5ccc(F)cc5F)c(C(F)(F)F)cc24)SC[C@@H]3COC)C[C@@H]1C` (atropisomer, axis not shown) [Example 13-15], the BBB activity was “+ (Compounds that were measured as having a total concentration in the brain of at least 60 ng/g are indicated as “+”)”.
In the case of `C=CC(=O)N1[C@H](C)CN(c2nc(=O)n3c4c(c(-c5ccc(F)cc5)c(C(F)(F)F)cc24)SC[C@@H](COC)C3)C[C@@H]1C` [Example 13-65], the BBB activity is reported as “− (Compounds that did not meet this threshold are indicated as “−”)”.
With `C=CC(=O)N1CCN(c2nc(=O)n3c4c(c(-c5cc(Cl)c(F)cc5F)c(Cl)cc24)SC[C@@H]3CN2CCN(C3CC3)CC2)[C@@H](C)C1` [Example 13-27] the BBB activity was “+ (Compounds that were measured as having a total concentration in the brain of at least 60 ng/g are indicated as “+”)”.
For `C=CC(=O)N1[C@H](C)CN(c2nc(=O)n3c4c(c(-c5ccc(F)cc5)c(C(F)(F)F)cc24)SC[C@@H](OCCF)C3)C[C@@H]1C` [Example 13-64], the BBB activity was “− (Compounds that did not meet this threshold are indicated as “−”)”.
For `C=CC(=O)N1CCN(c2nc(=O)n3c4c(c(-c5ccc(F)cc5F)c(Cl)cc24)SCCC3)[C@@H](C)C1` [Example 13-61], the BBB activity was “− (Compounds that did not meet this threshold are indicated as “−”)”.
For `C=CC(=O)N1[C@H](C)CN(c2nc(=O)n3c4c(c(-c5ccc(F)cc5)c(C(F)(F)F)cc24)SC[C@H](c2ccccc2)C3)C[C@@H]1C` [Example 13-47], the BBB activity was “− (Compounds that did not meet this threshold are indicated as “−”)”.
With `C=CC(=O)N1C[C@H](C)N(c2nc(=O)n3c4c(c(-c5cc(Cl)c(F)cc5F)c(Cl)cc24)SC[C@@H]3CN2CCN(CC(F)F)CC2)C[C@H]1C` [Example 13-56] the BBB activity was “− (Compounds that did not meet this threshold are indicated as “−”)”.
With `C=CC(=O)N1[C@H](C)CN(c2nc(=O)n3c4c(c(-c5cc(Br)c(F)cc5F)c(C(F)(F)F)cc24)SC[C@@H](Oc2cnccn2)C3)C[C@@H]1C` [Example 13-42] the BBB activity was “+ (Compounds that were measured as having a total concentration in the brain of at least 60 ng/g are indicated as “+”)”.
In the case of `C=CC(=O)C1[C@H](C)CN(c2nc(=O)n3c4c(c(-c5ccc(F)cc5)c(C(F)(F)F)cc24)SC[C@@H](OC)C3)C[C@@H]1C` (some centres unmarked) [Example 13-66], the BBB activity is reported as “− (Compounds that did not meet this threshold are indicated as “−”)”.
With `C=CC(=O)N1[C@H](C)CN(c2nc(=O)n3c4c(c(-c5ccc(F)cc5)c(Cl)cc24)SC[C@@H](OC)C3)C[C@@H]1C` [Example 13-69] the BBB activity was “− (Compounds that did not meet this threshold are indicated as “−”)”.
For `C=CC(=O)N1C[C@H](C)N(c2nc(=O)n3c4c(c(-c5ccc(F)cc5)c(Cl)cc24)OCC3CN(C)C)C[C@H]1C` (some centres unmarked) [Example 13-53], the BBB activity was “− (Compounds that did not meet this threshold are indicated as “−”)”.
For `C=CC(=O)N1[C@H](C)CN(c2nc(=O)n3c4c(c(-c5ccc(Cl)cc5F)c(C(F)(F)F)cc24)SC[C@@H]3COC)C[C@@H]1C` (atropisomer, axis not shown) [Example 13-3], the BBB activity was “+ (Compounds that were measured as having a total concentration in the brain of at least 60 ng/g are indicated as “+”)”.
For `C=CC(=O)N1[C@H](C)CN(c2nc(=O)n3c4c(c(-c5ccc(F)cc5)c(C(F)(F)F)cc24)SC[C@@H](OCC2CC2)C3)C[C@@H]1C` [Example 13-48], the BBB activity was “− (Compounds that did not meet this threshold are indicated as “−”)”.
For `C=CC(=O)N1CC2C(=O)N(C)c3cnc4c(F)c(-c5c(O)cccc5F)c(Cl)cc4c3N2C[C@H]1C` (some centres unmarked) [Example 13-32], the BBB activity was “+ (Compounds that were measured as having a total concentration in the brain of at least 60 ng/g are indicated as “+”)”.
With `C=CC(=O)N1CCN(c2nc(=O)n3c4c(c(-c5cc(Cl)c(F)cc5F)c(C(F)(F)F)cc24)SC[C@@H]3COC)CC1` [Example 13-5] the BBB activity was “+ (Compounds that were measured as having a total concentration in the brain of at least 60 ng/g are indicated as “+”)”.
For `C=CC(=O)N1[C@H](C)CN(c2nc(=O)n3c4c(c(-c5cc(Cl)c(F)cc5F)c(C(F)(F)F)cc24)SC[C@@H](OC)C3)C[C@@H]1C` (atropisomer, axis not shown) [Example 13-39], the BBB activity was “+ (Compounds that were measured as having a total concentration in the brain of at least 60 ng/g are indicated as “+”)”.
For `C=CC(=O)N1CCN(c2nc(=O)n3c4c(c(-c5cc(Cl)c(F)cc5F)c(Cl)cc24)OC[C@@H]3CN2CCN(CC(F)F)CC2)[C@@H](C)C1` [Example 13-81], the BBB activity was “− (Compounds that did not meet this threshold are indicated as “−”)”.
For `C=CC(=O)N1[C@H](C)CN(c2nc(=O)n3c4c(c(-c5ccc(F)cc5F)c(C(F)(F)F)cc24)SC[C@@H]3COC)C[C@@H]1C` [Example 13-13], the BBB activity was “+ (Compounds that were measured as having a total concentration in the brain of at least 60 ng/g are indicated as “+”)”.
With `C=CC(=O)N1CCN(c2nc(=O)n3c4c(c(-c5ccc(F)cc5F)c(C(F)(F)F)cc24)SC[C@@H]3COC)[C@@H](C)C1` [Example 13-35] the BBB activity was “+ (Compounds that were measured as having a total concentration in the brain of at least 60 ng/g are indicated as “+”)”.
With `C=CC(=O)N1CCN(c2nc(=O)n3c4c(c(-c5cc(Cl)c(F)cc5F)c(C(F)(F)F)cc24)SC[C@@H]3COC)CC1` (atropisomer, axis not shown) [Example 13-7] the BBB activity was “+ (Compounds that were measured as having a total concentration in the brain of at least 60 ng/g are indicated as “+”)”.
In the case of `C=CC(=O)N1[C@H](C)CN(c2nc(=O)n3c4c(c(-c5cc(Cl)c(F)cc5F)c(C(F)(F)F)cc24)SC[C@@H](OC)C3)C[C@@H]1C` [Example 13-24], the BBB activity is reported as “+ (Compounds that were measured as having a total concentration in the brain of at least 60 ng/g are indicated as “+”)”.
For `C=CC(=O)N1C[C@H](C)N(c2nc(=O)n3c4c(c(-c5ccc(F)cc5F)c(Cl)cc24)OC[C@H]3CCCN2CCC(F)(F)C2)C[C@H]1C` [Example 13-80], the BBB activity was “− (Compounds that did not meet this threshold are indicated as “−”)”.
With `C=CC(=O)N1[C@H](C)CN(c2nc(=O)n3c4c(c(-c5cc(Cl)c(F)cc5F)c(C(F)(F)F)cc24)SC[C@@H]3CN2CCN(C3CC3)CC2)C[C@@H]1C` [Example 13-28] the BBB activity was “+ (Compounds that were measured as having a total concentration in the brain of at least 60 ng/g are indicated as “+”)”.
In the case of `C=CC(=O)N1CCN(c2nc(=O)n3c4c(c(-c5ccc(F)cc5)c(C(F)(F)F)cc24)SC[C@@H]3CN2CCN(C3CC3)CC2)CC1` [Example 13-33], the BBB activity is reported as “+ (Compounds that were measured as having a total concentration in the brain of at least 60 ng/g are indicated as “+”)”.
In the case of `C=CC(=O)N1[C@H](C)CN(c2nc(=O)n3c4c(c(-c5ccc(F)cc5F)c(C(F)(F)F)cc24)SC[C@@H](OCC)C3)C[C@@H]1C` (atropisomer, axis not shown) [Example 13-58], the BBB activity is reported as “− (Compounds that did not meet this threshold are indicated as “−”)”.
With `C=CC(=O)N1[C@H](C)CN(c2nc(=O)n3c4c(c(-c5ccc(F)c(Cl)c5)c(C(F)(F)F)cc24)SC[C@@H](OCOC)C3)C[C@@H]1C` [Example 13-78] the BBB activity was “− (Compounds that did not meet this threshold are indicated as “−”)”.
In the case of `C=CC(=O)N1[C@H](C)CN(c2nc(=O)n3c4c(c(-c5cc(Cl)c(F)cc5F)c(C(F)(F)F)cc24)SC[C@@H]3COCOC)C[C@@H]1C` [Example 13-50], the BBB activity is reported as “− (Compounds that did not meet this threshold are indicated as “−”)”.
With `C=CC(=O)N1[C@H](C)CN(c2nc(=O)n3c4c(c(-c5cc(Br)c(F)cc5F)c(C(F)(F)F)cc24)SC[C@@H]3CC)C[C@@H]1C` (atropisomer, axis not shown) [Example 13-6] the BBB activity was “+ (Compounds that were measured as having a total concentration in the brain of at least 60 ng/g are indicated as “+”)”.
With `C=C(F)C(=O)N1CCN(c2nc(OC[C@H]3CCCN3C)nc3c2CCN(c2cccc4cccc(Cl)c24)C3)C[C@@H]1CC#N` [Example 13-75] the BBB activity was “− (Compounds that did not meet this threshold are indicated as “−”)”.
In the case of `C=CC(=O)N1C[C@H](C)N(c2nc(=O)n3c4c(c(-c5ccc(F)cc5F)c(C(F)(F)F)cc24)OC[C@@H]3COCCOC)C[C@H]1C` [Example 13-91], the BBB activity is reported as “− (Compounds that did not meet this threshold are indicated as “−”)”.
In the case of `C=CC(=O)N1C[C@H](C)N(c2nc(=O)n3c4c(c(-c5cc(Br)c(F)cc5F)c(C(F)(F)F)cc24)SCC2(COC2)C3)C[C@H]1C` [Example 13-23], the BBB activity is reported as “+ (Compounds that were measured as having a total concentration in the brain of at least 60 ng/g are indicated as “+”)”.
For `C=CC(=O)N1CCN(c2nc(=O)n3c4c(c(-c5c(C)cc(F)cc5F)c(C(F)(F)F)cc24)SC[C@@H]3COC)CC1` [Example 13-16], the BBB activity was “+ (Compounds that were measured as having a total concentration in the brain of at least 60 ng/g are indicated as “+”)”.
With `C=CC(=O)N1CCN(c2nc(=O)n3c4c(c(-c5ccc(F)cc5F)c(C(F)(F)F)cc24)SC[C@@H]3COC)CC1` [Example 13-14] the BBB activity was “+ (Compounds that were measured as having a total concentration in the brain of at least 60 ng/g are indicated as “+”)”.
For `C=CC(=O)N1[C@H](C)CN(c2nc(=O)n3c4c(c(-c5ccc(F)cc5)c(C(F)(F)F)cc24)SC[C@@H](OCC)C3)C[C@@H]1C` [Example 13-55], the BBB activity was “− (Compounds that did not meet this threshold are indicated as “−”)”.
